Where no end group is shown, it is not given here.
Columns and labels:
Assay type in all cases: cell-based
[1] = test system: primary umbilical cord-derived mesenchymal stem cells; experiment: Stem cell proliferation (CCK, absorbance 450 nm) after pretreatment; conditions: 24 h culture, CCK 4 h
Method: (§1) In a culture medium [high glucose DMEM (Gibco, Cat no. 11995-065); 10% fetal bovine serum (HyClone), 1% MEM non-essential amino acids solution (100×) (Gibco, Cat no. 11140-050)] containing 20 nM of exendin-4, primary umbilical cord-derived mesenchymal stem cells (ATCC No. PCS-500-010; Lot No. 63822428) were cultured for one week.
as §1, with “10” for “20”, “PMA,” for “exendin-4,”
as §1, with “10 ng/mL interferon-γ,” for “20 nM of exendin-4,”
as §1, with “10 μM” for “20 nM”, “tetrandrine,” for “exendin-4,”
as §1, with “10 μg/mL hyaluronic acid,” for “20 nM of exendin-4,”
as §1, with “30” for “20”, “substance P,” for “exendin-4,”
as §1, with “10” for “20”, “resveratrol,” for “exendin-4,”
as §1, with “10 μM” for “20 nM”, “lanifibranor,” for “exendin-4,”
(§2) Mesenchymal stem cells and the exendin-4-pretreated mesenchymal stem cells of the Example were each seeded at a density of 3,000 cells/well into 96-well plates containing 100 μL of a culture medium [high glucose DMEM (Gibco, Cat no. 11995-065), 10% fetal bovine serum (HyClone), 1% MEM non-essential amino acids solution (100×) (Gibco, Cat no. 11140-050)] per well and cultured for 24 hours in a CO2 incubator. Then, CCK solution (10 μL/well) was added, and incubation was continued for 4 hours in the CO2 incubator, followed by reading absorbance at a wavelength of 450 nm (420-480 nm) to determine proliferation.
as §2, with “PMA-pretreated” for “exendin-4-pretreated”, “proliferation. […]” for “proliferation.”

[2] = test system: primary umbilical cord-derived mesenchymal stem cells; experiment: Stem cell stemness: colony formation (CFU-F, crystal violet) after pretreatment; conditions: for colonies formed (each 50 or more cells): 1,000 cells/dish, 21 days; for CFU-F increase: vs non-treated
Method: as §1
as §1, with “10” for “20”, “PMA,” for “exendin-4,”
as §1, with “10 ng/mL interferon-γ,” for “20 nM of exendin-4,”
as §1, with “10 μM” for “20 nM”, “tetrandrine,” for “exendin-4,”
as §1, with “10 μg/mL hyaluronic acid,” for “20 nM of exendin-4,”
as §1, with “30” for “20”, “substance P,” for “exendin-4,”
as §1, with “10” for “20”, “resveratrol,” for “exendin-4,”
as §1, with “10 μM” for “20 nM”, “lanifibranor,” for “exendin-4,”
Mesenchymal stem cells and the exendin-4-pretreated mesenchymal stem cells of the Example were each seeded at a density of 1,000 cells/dish into 100-mm cell culture dishes containing […] of a culture medium [high glucose DMEM (Gibco, Cat no. 11995-065), 10% fetal bovine serum (HyClone), 1% MEM non-essential amino acids solution (100×) (Gibco, Cat no. 11140-050)] per dish and cultured for 21 days. The cell-attached dishes were washed twice with PBS, followed by fixation with 95% methanol at room temperature for about 2 min. The fixed cells were washed three times with PBS and stained with 0.5% crystal violet [(sigma, C-3886, USA) […], methanol 100 ml] for 5 min. After water washing and drying at room temperature, colonies, each composed of 50 or more cells, were counted for comparison.
Mesenchymal stem cells and the PMA-pretreated mesenchymal stem cells of the Example were each seeded at a density of 1,000 cells/dish into 100-mm cell culture dishes containing […] of a culture medium [high glucose DMEM (Gibco, Cat no. 11995-065), 10% fetal bovine serum (HyClone), 1% MEM non-essential amino acids solution (100×) (Gibco, Cat no. 11140-050)] per dish and cultured for 21 days. The cell-attached dishes were washed twice with PBS, followed by fixation with 95% methanol at room temperature for about 2 min. […]

[3] = test system: primary umbilical cord-derived mesenchymal stem cells; experiment: Number of exosomes by nanoparticle tracking assay (NanoSight NS300); conditions: for No. of exosome particles, yield per 10^6 cells: then 72 h exosome-free FBS medium
Method: as §1
(§3) After completion of culturing, the mesenchymal stem cells pretreated with exendin-4 were washed and additionally cultured for 72 hours in a culture medium supplemented with 10% fetal bovine serum (FBS) free of exosomes. The reason of employing exosome-free FBS was to prevent FBS-derived exosomes other than those secreted from the cells from being incorporated because generally used FBS contained a large amount of exosomes derived from bovine serum.
(§4) After 72 hours of culturing, the culture medium in which the pretreated mesenchymal stem cells were cultured was taken and centrifuged at 300×g for 10 min to remove residual cells and cell debris. The supernatant was filtered through a 0.22 μm filter, followed by centrifugation at 10,000×g and 4° C. for 70 min in a high-speed centrifuge. The supernatant thus obtained was subjected again to ultracentrifugation at 100,000×g and 4° C. for 90 min. The exosomes obtained as a pellet were diluted in PBS (phosphate buffered saline) before use in the following experiments.
as §1, with “10” for “20”, “PMA,” for “exendin-4,”
as §3, with “PMA” for “exendin-4”
as §1, with “10 ng/mL interferon-γ,” for “20 nM of exendin-4,”
as §3, with “interferon-γ” for “exendin-4”
as §1, with “10 μM” for “20 nM”, “tetrandrine,” for “exendin-4,”
as §3, with “tetrandrine” for “exendin-4”, “serum. […]” for “serum.”

[4] = test system: primary umbilical cord-derived mesenchymal stem cells; experiment: Content of exosomal protein (Bradford analysis, 595 nm); conditions: for Exosomal protein, yield per 10^6 cells: then 72 h exosome-free FBS medium
Method: as §1, §3, §4
as §1, with “10” for “20”, “PMA,” for “exendin-4,”
as §3, with “PMA” for “exendin-4”
as §1, with “10 ng/mL interferon-γ,” for “20 nM of exendin-4,”
as §3, with “interferon-γ” for “exendin-4”
as §1, with “10 μM” for “20 nM”, “tetrandrine,” for “exendin-4,”
as §3, with “tetrandrine” for “exendin-4”, “serum. […]” for “serum.”

[5] = test system: primary umbilical cord-derived mesenchymal stem cells; experiment: Content of exosomal RNA (NanoDrop); conditions: for Exosomal RNA, yield per 10^6 cells: then 72 h exosome-free FBS medium
Method: as §1, §3, §4
as §1, with “10” for “20”, “PMA,” for “exendin-4,”
as §3, with “PMA” for “exendin-4”
as §1, with “10 ng/mL interferon-γ,” for “20 nM of exendin-4,”
as §3, with “interferon-γ” for “exendin-4”
as §1, with “10 μM” for “20 nM”, “tetrandrine,” for “exendin-4,”
as §3, with “tetrandrine” for “exendin-4”, “serum. […]” for “serum.”

[6] = 20 nM exendin-4 pretreatment one week
[7] = 30 nM substance P pretreatment one week

Substance	increase in proliferation relative to non-treated mesenchymal stem cells [1, 6]	proliferation ratio relative to non-treated mesenchymal stem cells (1) [1, 6]	colonies formed (each 50 or more cells) ([2]; 20 nM exendin-4 pretreatment one week, non-treated 28.6) [colonies]	CFU-F increase [2, 6]	fold more exosomes than non-treated mesenchymal stem cells [3, 6]	No. of exosome particles, yield per 10^6 cells ([3]; 20 nM exendin-4 pretreatment one week, non-treated 2.30)	fold greater exosomal proteins than non-treated mesenchymal stem cells [4, 6]	Exosomal protein, yield per 10^6 cells ([4]; 20 nM exendin-4 pretreatment one week, non-treated 2.00) [μg]	fold greater exosomal RNA than non-treated mesenchymal stem cells [5, 6]	Exosomal RNA, yield per 10^6 cells ([5]; 20 nM exendin-4 pretreatment one week, non-treated 31.00) [ng]	increase in proliferation relative to non-treated mesenchymal stem cells [1, 7]	proliferation ratio relative to non-treated mesenchymal stem cells (1) [1, 7]	colonies formed (each 50 or more cells) ([2]; 30 nM substance P pretreatment one week, non-treated 28.7) [colonies]	CFU-F increase [2, 7]	fold more exosomes than non-treated mesenchymal stem cells [3, 7]	No. of exosome particles, yield per 10^6 cells ([3]; 30 nM substance P pretreatment one week, non-treated 2.3)	fold greater exosomal proteins than non-treated mesenchymal stem cells [4, 7]	Exosomal protein, yield per 10^6 cells ([4]; 30 nM substance P pretreatment one week, non-treated 2.0) [ug]	fold greater exosomal RNA than non-treated mesenchymal stem cells [5, 7]	Exosomal RNA, yield per 10^6 cells ([5]; 30 nM substance P pretreatment one week, non-treated 31.0) [ng]
exendin-4	about 340%	3.4	185	about 647%	about 5.85 fold	13.45 10^9	about 5.4 fold	10.69	about 5.6 fold	174.34	–	–	–	–	–	–	–	–	–	–
substance P (RPKPQQFFGLM; not fully specified; ends and bridges not checked; UniProt P20366 58-68, looked up) [undecapeptide of the tachykinin neuropeptide family acting on NK1 receptor; SubsP MSC-Exo = exosomes of treated mesenchymal stem cells]	–	–	–	–	–	–	–	–	–	–	about 290%	2.9	116	about 404%	about 4.3 fold	9.93 10^9	about 5.2 fold	10.37	about 4.9 fold	150.84
